Measurements as given in publication PMC5456363 (PLoS ONE, 2017).
Where “and” joins values, the source holds several entries; their conditions need not be identical. Equal values may be shown once. Entries after “also recorded” stand apart in the source; their conditions may differ. Non-standard residues stand in square brackets, D forms with d. Residues, ends and D or L forms follow the SMILES beside them. No end group written: not given here. *: point of attachment. Orn(α-tetramethylguanidino) = CN(C)C(=N[C@@H](CCCN)C(=O)*)N(C)C; Orn = NCCC[C@H](N)C(=O)O

What was measured:
[1] = Peptide stability in fresh blood taken by cardiac puncture into a syringe containing the peptide (blood, B); type: in vitro ADME, CD-1 mice; conditions: blood, 37°C, 1 h, 31.5 μmol/L; for remaining at 1 h: CD-1, mouse, fresh whole blood, read-out: intact peptide remaining relative to time zero
Description: (§1) All stability tests were performed at least in triplicates.

[2] = Peptide stability in direct serum (DS); type: in vitro ADME, CD-1 mice; conditions: 37°C, 1 h, 31.5 μmol/L; for remaining at 1 h, 31.5 μmol/L: CD-1, mouse, direct serum (supernatant of blood centrifuged immediately), read-out: intact peptide remaining relative to time zero
Description: as §1

[3] = Peptide stability in activated serum (AS); type: in vitro ADME, CD-1 mice; conditions: 37°C, 1 h, 31.5 μmol/L; for remaining at 1 h, 31.5 μmol/L: CD-1, mouse, read-out: intact peptide remaining relative to time zero
Description: as §1

[4] = Peptide stability in commercial serum (CS); type: in vitro ADME, mouse; conditions: commercial mouse serum, 37°C, 1 h, 31.5 μmol/L; for remaining at 1 h, 31.5 μmol/L: commercial pooled serum, read-out: intact peptide remaining relative to time zero
Description: as §1

[5] = Peptide stability in heparin plasma (HP); type: in vitro ADME, CD-1 mouse; conditions: 37°C, 1 h, 31.5 μmol/L
Description: as §1

[6] = Peptide stability in EDTA plasma (EP); type: in vitro ADME, CD-1 mouse; conditions: 37°C, 1 h, 31.5 μmol/L
Description: as §1

[7] = cited from earlier work
[8] = Stability and metabolites across fresh blood, serum and plasma (all six matrices); conditions: for Overall stability / Sequential stability: fresh blood, serum, and plasma
Description: Aqueous peptide solutions (3 g/L) were filled in a sterile syringe (1 mL, Dispomed Witt oHG, Gelnhausen, Deutschland) through the front end, the stainless-steel needle was attached, and blood (200 to 300 μL) was collected via cardiac puncture to obtain a peptide concentration of approximately 31,5 μmol/L. The syringe was carefully disconnected from the needle and sealed while keeping the needle in the heart. A second empty syringe was attached to the needle and 0.5 to 0.8 mL blood were collected. In parallel, the sealed syringe was gently shaken for one minute to mix the peptide solution with blood and further incubated on a Stuart Rotator SB3 (Barloworld, Scientific LTD, Stone, Staffordshire, U.K.) placed in an incubator at 37°C. […] The plasma sample designated as “blood” (B) was precipitated with trichloroacetic acid (TCA), as described below. Blood collected in the second syringe was transferred to a polypropylene tube (Eppendorf AG, Hamburg, Germany) and a BD Microtainer® serum separator tube (SST; Becton, Dickinson and Company). Polypropylene tubes were centrifuged immediately (12,000 x g, 2 to 4 min) to obtain “direct serum” (DS) as supernatant, whereas the serum separator tubes were incubated (room temperature, 1 h), centrifuged (12,000 x g, 2 min), and collected as “activated serum” (AS). Pooled mouse serum was purchased from PAA Laboratories GmbH (Pasching, Austria) and pooled CD-1 mouse plasma containing K2EDTA or lithium heparin were obtained from Innovative Research (Novi, MI, USA).
Peptides were mixed with serum or plasma to a final concentration of 31.5 μmol/L and incubated (37°C, 750 rpm; Thermomixer, Eppendorf AG, Hamburg, Germany). Aliquots (20 or 40 μL) taken after 0 and 60 min (0, 10 and 30 min for Api88) were mixed with TCA to obtain a final concentration of 3% (w/v) and incubated on ice (10 min). After centrifugation (12,000 x g, 5 min), the supernatant was neutralized with sodium hydroxide (1 mol/L) and stored at −20°C. Samples were analyzed by RP-HPLC on a Jupiter C18-column (internal diameter: 2 mm, length: 150 mm, particle size: 5 μm, pore size: 30 nm) using a linear aqueous acetonitrile gradient containing TFA (0.1%, v/v) as ion pair reagent. Peptides were detected by recording the absorbance at 214 nm and quantified by their peak areas relative to the initial peak areas (0 min). All stability tests were performed at least in triplicates.
Metabolites were identified on an Agilent 1100 LC system (Agilent Technologies, Santa Clara, CA, USA) coupled on-line via a UV-detector (absorbance recorded at 214 nm) to the electrospray ionization source on an ion trap mass spectrometer (ESI-IT-MS, Esquire HCT, Bruker Daltonics GmbH, Bremen, Germany). Samples were separated on an Aqua C18-column (inner diameter: 2 mm, length: 150 mm, particle size: 3 μm, pore size: 12.5 nm, Phenomenex; column temperature: 60°C) at a flow rate of 0.2 mL/min using a linear gradient of aqueous acetonitrile in the presence of formic acid (FA; 0.1%, v/v) as ion pair reagent. […] The ESI-IT-MS was operated in positive ion mode. Ionization was carried out at 365°C (source temperature) using nitrogen as curtain gas (40 psi) and dry gas (9 L/min). Mass spectra were acquired for an m/z range from 400 to 1300 at a scan rate of 8100 m/z-units per second in standard enhanced mode.

[9] = “direct serum” (DS): blood in polypropylene tubes centrifuged immediately; conditions: CD-1 mice, 37°C, up to 60 min
[10] = “activated serum” (AS): serum separator tubes incubated (room temperature, 1 h), centrifuged; conditions: CD-1 mice, 37°C, up to 60 min
[11] = blood collected via cardiac puncture into a syringe containing the peptide solution (“blood”, B); conditions: CD-1 mice, 37°C, up to 60 min
[12] = Pooled mouse serum (PAA Laboratories), commercial serum (CS); conditions: 37°C, up to 60 min
[13] = pooled CD-1 mouse plasma containing K2EDTA (EDTA plasma, EP); conditions: 37°C, up to 60 min
[14] = pooled CD-1 mouse plasma containing lithium heparin (heparin plasma, HP); conditions: 37°C, up to 60 min
human α-thrombin = assay: human α-thrombin; conditions: up to 24 hours

## CC[C@H](C)[C@H](NC(=O)[C@H](Cc1ccc(O)cc1)NC(=O)[C@@H](NC(=O)[C@@H]1CCCN1C(=O)[C@H](CCCNC(=N)N)NC(=O)[C@H](CC(N)=O)NC(=O)[C@H](CC(N)=O)NC(=O)[C@H](CCCN)N=C(N(C)C)N(C)C)C(C)C)C(=O)N1CCC[C@H]1C(=O)N[C@@H](CCCNC(=N)N)C(=O)N1CCC[C@H]1C(=O)N[C@@H](CCCNC(=N)N)C(=O)N1CCC[C@H]1C(=O)N1CCC[C@H]1C(=O)N[C@@H](Cc1c[nH]cn1)C(=O)N1CCC[C@H]1C(=O)N[C@@H](CCCN)C(=O)N[C@@H](CC(C)C)C(N)=O [Api134, gu-ONNRPVYIPRPRPPHPOL-NH2] ({Orn(α-tetramethylguanidino)}-NNRPVYIPRPRPPHP[Orn]L-NH2)
[1]
  intact peptide remaining relative to time zero: ≥ 94%
[2]
  intact peptide remaining relative to time zero: ≥ 94%
[3]
  intact peptide remaining relative to time zero: ≥ 94%
[4]
  remaining at 1 h, 31.5 μmol/L: 78 ± 2%
[5]
  intact peptide remaining relative to time zero: ≥ 94%
[6]
  intact peptide remaining relative to time zero: ≥ 94%
[7]; in vitro, mouse serum
  half-life time in mouse serum: 4 h
[8]
  Overall stability: High
  Sequential stability: Blood = Plasma = Serum

## CC[C@H](C)[C@H](NC(=O)[C@H](CCCN)NC(=O)[C@H](CCCNC(=N)N)NC(=O)[C@@H]1CCCN1C(=O)[C@@H]1CCCN1C(=O)[C@H](CCCNC(=N)N)NC(=O)[C@@H]1CCCN1C(=O)[C@H](CCCNC(=N)N)NC(=O)[C@@H]1CCCN1C(=O)[C@H](CC(C)C)NC(=O)[C@H](Cc1ccc(O)cc1)NC(=O)[C@@H]1CCCN1C(=O)[C@@H]1CCCN1C(=O)[C@H](CCCCN)NC(=O)[C@H](CC(=O)O)NC(=O)[C@@H](N)C(C)C)C(=O)N[C@@H](Cc1ccc(O)cc1)C(=O)N[C@@H](CC(N)=O)C(=O)N[C@@H](CCCN)C(N)=O [Onc72, VDKPPYLPRPRPPROIYNO-NH2] (H-VDKPPYLPRPRPPR[Orn]IYN[Orn]-NH2)
[1]
  remaining at 1 h: 103 ± 11%
[2]
  remaining at 1 h, 31.5 μmol/L: 94 ± 8%
[3]
  remaining at 1 h, 31.5 μmol/L: 80 ± 12%
[4]
  remaining at 1 h, 31.5 μmol/L: 64 ± 2%
[5]; CD-1, mouse, pooled plasma containing lithium heparin, read-out: intact peptide remaining relative to time zero
  remaining at 1 h, 31.5 μmol/L: 62 ± 8%
[6]; CD-1, mouse, pooled plasma containing K2EDTA, read-out: intact peptide remaining relative to time zero
  remaining at 1 h, 31.5 μmol/L: 47 ± 3%
[7]; mouse serum
  serum half-life time: 3 h
[7]; serum, 1 h
  peptide remaining in serum after one hour, previous study: 80%
[8]
  Overall stability: Medium
  Sequential stability: Blood = Serum > Plasma

## DTEDKGEFLSEGGGVR
[9]
  fragment found: FPA(2–16); TEDKGEFLSEGGGVR; also recorded: FPA(3–16); EDKGEFLSEGGGVR
[10]
  fragment found: FPA(2–16); TEDKGEFLSEGGGVR; also recorded: FPA(3–16); EDKGEFLSEGGGVR
[11]
  fragment found: FPA(2–16); TEDKGEFLSEGGGVR, one hour; also recorded: FPA(3–16); EDKGEFLSEGGGVR, one hour

## H-VDKPPYLPRPRPPRRIYNR-NH2
[12]
  cleaved bond: Arg14-Arg15, major; also recorded: Asn18-Arg19, major
[13]
  cleaved bond: Arg14-Arg15, major
  fragment found: Onc18(1–15); VDKPPYLPRPRPPRR-OH
[14]
  cleaved bond: Arg14-Arg15, major
  fragment found: Onc18(2–14); DKPPYLPRPRPPR-OH
[9]
  cleaved bond: Arg14-Arg15, major
  fragment found: Onc18(1–18); VDKPPYLPRPRPPRRIYN-OH
[10]
  cleaved bond: Arg14-Arg15, major
  fragment found: Onc18(1–18); VDKPPYLPRPRPPRRIYN-OH
[11]
  cleaved bond: Arg14-Arg15, major
  fragment found: Onc18(1–18); VDKPPYLPRPRPPRRIYN-OH

## H-VDKPPYLPRPRPPRRIYNR-NH2 [Onc18, VDKPPYLPRPRPPRRIYNR-NH2]
[1]
  remaining at 1 h: 42 ± 12%
[2]
  remaining at 1 h, 31.5 μmol/L: 72 ± 4%
[3]
  remaining at 1 h, 31.5 μmol/L: 53 ± 4%
[4]
  intact peptide remaining relative to time zero: less than 13%
  remaining at 1 h, 31.5 μmol/L: 12 ± 1%
[5]
  intact peptide remaining relative to time zero: less than 13%
[6]
  intact peptide remaining relative to time zero: less than 13%
[7]; mouse serum
  serum half-life time: 0.333 h and 0.417 h
[7]; serum, 1 h
  fraction of peptide remaining in serum after 1 h, reported: around a quarter
[8]
  Overall stability: Medium
  Sequential stability: Blood = Serum > Plasma

## VDKPPYLPRPRPPROIYNO-NH2 (H-VDKPPYLPRPRPPR[Orn]IYN[Orn]-NH2)
[12]
  cleaved bond: Arg14-Orn15, major; also recorded: Asn18-Orn19, major; also recorded: Orn15-Ile16
[13]
  cleaved bond: Arg14-Orn15, major; also recorded: Asn18-Orn19, major; also recorded: Orn15-Ile16
[14]
  cleaved bond: Arg14-Orn15, major; also recorded: Asn18-Orn19, major; also recorded: Orn15-Ile16
[9]
  cleaved bond: Arg14-Orn15, major; also recorded: Asn18-Orn19, major
[10]
  cleaved bond: Arg14-Orn15, major; also recorded: Asn18-Orn19, major
[11]
  cleaved bond: Arg14-Orn15, major; also recorded: Asn18-Orn19, major

## VDKPPYLPRPRPPRRIYN-OH [Onc18(1–18)]
[8]; LC-MS, peak area at least 1% of initially incubated peptide, B blood, DS direct serum, AS activated serum, CS commercial serum, EP EDTA plasma, HP heparin plasma, All = all six
  Matrix in which the metabolite was identified: B, DS, AS, CS

## VDKPPYLPRPRPPRrIYNr-NH2 (H-VDKPPYLPRPRPPR[dR]IYN[dR]-NH2)
[12]
  not cleaved: less than 2% being degraded after 1 hour
[13]
  not cleaved: at least 96% remaining after 1 hour
[14]
  not cleaved: at least 96% remaining after 1 hour
[9]
  not cleaved: at least 96% remaining after 1 hour
[10]
  not cleaved: at least 96% remaining after 1 hour
[11]
  not cleaved: at least 96% remaining after 1 hour

## gu-ONNRPVYIPRPRPPHPOL-NH2 ({Orn(α-tetramethylguanidino)}-NNRPVYIPRPRPPHP[Orn]L-NH2)
[12]
  fragment found: Api134(1–17); also recorded: Api134 (1–16); also recorded: Api134(7–18); YIPRPRPPHPOL-NH2, major; also recorded: Api134 (8–18); IPRPRPPHPOL-NH2, major
[13]
  not cleaved: ≥94% intact peptide (one hour)
[14]
  fragment found: Api134(7–18), minor
[10]
  fragment found: Api134(1–17), minor; also recorded: Api134(1–15), minor; also recorded: Api134(7–18), minor
[11]
  not cleaved: ≥94% intact peptide (one hour)

## gu-ONNRPVYIPRPRPPHPRL-NH2 ({Orn(α-tetramethylguanidino)}-NNRPVYIPRPRPPHPRL-NH2; SMILES CC[C@H](C)[C@H](NC(=O)[C@H](Cc1ccc(O)cc1)NC(=O)[C@@H](NC(=O)[C@@H]1CCCN1C(=O)[C@H](CCCNC(=N)N)NC(=O)[C@H](CC(N)=O)NC(=O)[C@H](CC(N)=O)NC(=O)[C@H](CCCN)N=C(N(C)C)N(C)C)C(C)C)C(=O)N1CCC[C@H]1C(=O)N[C@@H](CCCNC(=N)N)C(=O)N1CCC[C@H]1C(=O)N[C@@H](CCCNC(=N)N)C(=O)N1CCC[C@H]1C(=O)N1CCC[C@H]1C(=O)N[C@@H](Cc1c[nH]cn1)C(=O)N1CCC[C@H]1C(=O)N[C@@H](CCCNC(=N)N)C(=O)N[C@@H](CC(C)C)C(N)=O)
Human α-thrombin
  cleaved bond: R17-L18, one hour
[12]
  cleaved bond: Arg17-Leu18, major
  fragment found: Api88(1–16); gu-ONNRPVYIPRPRPPHP-OH
[13]
  cleaved bond: Arg17-Leu18, major
[14]
  cleaved bond: Arg17-Leu18, major
[9]
  cleaved bond: Arg17-Leu18, major
  fragment found: Api88(1–16)
[10]
  cleaved bond: Arg17-Leu18, major
  fragment found: Api88(1–16)
[11]
  cleaved bond: Arg17-Leu18, major
  fragment found: Api88(1–16)

## gu-ONNRPVYIPRPRPPHPRL-OH ({Orn(α-tetramethylguanidino)}-NNRPVYIPRPRPPHPRL-OH)
Human α-thrombin
  fragment found: Api137(1–17), minor, 24 h
[12]
  fragment found: Api137(1–17); gu-ONNRPVYIPRPRPPHPR-OH; also recorded: Api137(1–16); gu-ONNRPVYIPRPRPPHP-OH; also recorded: Api137(1–15)
[13]
  not cleaved: ≥94% (one hour)
[14]
  fragment found: Api137(1–17); also recorded: Api137(1–16); also recorded: Api137(1–15); also recorded: Api137(7–18)
[9]
  fragment found: Api137(1–17); gu-ONNRPVYIPRPRPPHPR-OH; also recorded: Api137(1–16); also recorded: Api137(1–15)
[10]
  fragment found: Api137(1–17); also recorded: Api137(1–16); also recorded: Api137(1–15)
[11]
  fragment found: Api137(1–17); gu-ONNRPVYIPRPRPPHPR-OH; also recorded: Api137(1–16); also recorded: Api137(1–15); also recorded: Api137(7–18)
